Test results reported in US20110178015A1, “METHODS OF TREATMENT USING BIASED LIGANDS FOR RECEPTORS SUCH AS THE PTH RECEPTOR” (priority 2007, published 2011).

How the values were obtained:
[1] = system: WT and β-arrestin 2−/− mice; assay: Bone mineral density after intermittent daily IP treatment; assay type: in vivo; conditions: once daily IP 40 mg/kg/day, 4 and 8 weeks
Protocol: FIG. 3. PTH-βarr increases lumbar spine bone mineral density. The effect of daily administration of vehicle, PTH (1-34)(PTH) or PTH-βarr on bone mineral density after 4 and 8 weeks was measured in the (a) lumbar spine of WT mice (b) lumbar spine of β-arrestin 2−/− (c) femur shaft of WT mice and (d) femoral shaft of β-arrestin 2−/− mice. […] Data represents the mean±SEM of at least 7 independent mouse measurements. (*, P<0.05; **, P<0.01 compared with vehicle treated controls)
β-arrestin 2−/− mice are fertile and present no gross phenotypic abnormalities. Further, no gross alterations in skeletal morphology or size were detected by x-ray analysis of β-arrestin 2−/− mice compared to 6 WT mice (data not shown). To examine the contribution of β-arrestin mediated signaling to regulation of the anabolic effects of PTH on bone, 9 week old WT and β-arrestin 2−/− mice were treated with intermittent (i.e. once daily) IP injection of PTH (1-34) (40 mg/kg/day), the β-arrestin biased agonist PTH-βarr (40 mg/kg/day). Its usually mg/kg/day) or vehicle. Bone mineral density (BMD) measurements were obtained at baseline and serially over 4 to 8 wks (FIG. 2). […] There were no significant differences in whole body BMD or femoral BMD between the WT or β-arrestin 2−/− mice. […] Consistent with earlier reports, these increases in BMD were absent in the PTH(1-34) treated β-arrestin 2−/− mice (FIGS. 2B and D). […] The decrease in BMD in β-arrestin 2−/− mice treated with PTH-βarr, are likely due to the inhibition of G protein mediated signaling as well as the absence of β-arrestin 2 mediated signaling.

PTH1 receptor = conditions: cited from earlier work
[2] = Gardella 1996, Sneddon 2004, Bisello 2002

| Substance | femoral BMD vs vehicle ([1]; WT mice) | lumbar spine BMD vs vehicle ([1]; WT mice, 40 mg/kg/day) | femoral BMD vs vehicle ([1]; β-arrestin 2−/− mice) | PTH1 receptor-Gs coupling / cAMP production (PTH1 receptor; [2]) | arrestin-dependent sequestration / β-arrestin recruitment (PTH1 receptor; [2]) | β-arrestin-dependent ERK1/2 activation (PTH1 receptor; in vitro, Gesty-Palmer 2006) | lumbar spine BMD vs vehicle ([1]; WT mice) | lumbar spine BMD vs vehicle ([1]; β-arrestin 2−/− mice) |
| --- | --- | --- | --- | --- | --- | --- | --- | --- |
| (D-Trp12, Tyr34)-PTH(7-34) [PTH-βarr] | did not significantly affect | significant increases | decreases | inverse agonist | promoting arrestin-dependent sequestration | elicit β-arrestin-dependent ERK1/2 activation | – | – |
| PTH(1-34) [reference compound] | marked increases | – | absent | – | – | – | marked increases | absent |
